# Where a SMILES comes first, the peptide text is derived from it. Bridges are numbered along the chain shown (N, C = ends). [ ]: non-standard residue; d: D form. Pro(4R-NH2) = N[C@H]1CN[C@H](C(=O)O)C1; Dab = NCC[C@H](N)C(=O)O
# Target: T1, FPR1 (Homo sapiens, UniProt P21462)
# T1 construct: host or cells: CHO (PathHunter CHO-FPR1 β-arrestin cells)
# T1 sequence (P21462 1-350): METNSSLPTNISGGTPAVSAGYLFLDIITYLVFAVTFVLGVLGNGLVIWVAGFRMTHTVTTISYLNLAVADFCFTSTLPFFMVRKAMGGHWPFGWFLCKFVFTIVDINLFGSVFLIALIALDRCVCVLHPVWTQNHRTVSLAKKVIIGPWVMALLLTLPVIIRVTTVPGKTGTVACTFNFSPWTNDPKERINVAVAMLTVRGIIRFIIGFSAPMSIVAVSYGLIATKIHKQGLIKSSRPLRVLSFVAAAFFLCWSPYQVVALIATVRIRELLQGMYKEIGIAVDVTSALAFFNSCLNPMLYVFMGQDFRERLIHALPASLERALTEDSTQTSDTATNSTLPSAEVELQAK
# Experiment: FPR1 β-arrestin recruitment assay (PathHunter CHO-FPR1, antagonistic mode)
# Assay type: cell-based
# Details: CHO FPR1 β-arrestin cells; antagonistic assay vs reference agonist fMLF at its EC80; 60 min preincubation
# Method: 2.2 FPR1 β-Arrestin Recruitment Assay
# The PathHunter CHO—FPR1 (DiscoverX) assay was performed according to the manufacturer's protocol. In brief, CHO FPR1 β-arrestin cells were seeded at a density of 9000 cells per well in 20 μl of Ham's F12 medium (Invitrogen) in black 384-well culture plates and incubated overnight at 37° C. in a humidified atmosphere with 5% CO2. The next day, serial dilutions of the β-hairpin peptidomimetics of this invention have been prepared in DMSO and subsequently diluted in HBSS buffer supplemented with 20 mM Hepes and 0.1% BSA.
# For antagonistic assay, 5 μl of compound solution or buffer was added to the cells with a final DMSO concentration of 0.5% (v/v). The plate was incubated for 60 min at 37° C. with 5% CO2 before addition of […] of the reference agonist fMLF peptide (Sigma-Aldrich) at its EC80 concentration. After 90 min of incubation at 37° C. with 5% CO2, 15 μl of beta-Glo detection reagent (Promega) were added. Reaction was developed for 20 min at room temperature and chemiluminescence was measured with a Victor2V (Perkin Elmer) luminescence reader.
row,IC50,Structure (SMILES)
1,189 ± 79 nM,"CC[C@H](C)[C@@H]1NC(=O)[C@H]([C@@H](C)O)NC(=O)[C@H](Cc2c[nH]c3ccccc23)NC(=O)[C@H]2CCCN2C(=O)CNC(=O)[C@H](Cc2c[nH]cn2)NC(=O)[C@@H]2CSSC[C@H](NC1=O)C(=O)N[C@@H](Cc1ccc(O)cc1)C(=O)N[C@@H](CCC(=O)O)C(=O)N[C@@H](CCCCN)C(=O)N1CCC[C@@H]1C(=O)N1CCC[C@H]1C(=O)N[C@@H](Cc1ccc(O)cc1)C(=O)N[C@@H](Cc1c[nH]cn1)C(=O)N[C@@H](C)C(=O)N2 [compound 30, cyclo(-Tyr-His-Ala-Cys-His-Gly-^DPro-Trp-Thr-Ile-Cys-Tyr-Glu-Lys-^DPro-Pro-)] (cyclo(YHACHG[dP]WTICYEK[dP]P); disulfide 4-11)"
2,77 ± 4 nM,"CC[C@H](C)[C@@H]1NC(=O)[C@H]([C@@H](C)O)NC(=O)[C@H](Cc2c[nH]c3ccccc23)NC(=O)[C@@H](C)NC(=O)CNC(=O)[C@H](Cc2c[nH]cn2)NC(=O)[C@@H]2CSSC[C@H](NC1=O)C(=O)N[C@@H](Cc1ccc(O)cc1)C(=O)N[C@@H](CCC(=O)O)C(=O)N[C@@H](CCCCN)C(=O)N1CCC[C@@H]1C(=O)N1CCC[C@H]1C(=O)N[C@@H](Cc1ccc(O)cc1)C(=O)N[C@@H](Cc1c[nH]cn1)C(=O)N[C@@H](CCCCN)C(=O)N2 [compound 71, cyclo(-Tyr-His-Lys-Cys-His-Gly-^DAla-Trp-Thr-Ile-Cys-Tyr-Glu-Lys-^DPro-Pro-)] (cyclo(YHKCHG[dA]WTICYEK[dP]P); disulfide 4-11)"
3,82 ± 29 nM,"CC[C@H](C)[C@@H]1NC(=O)[C@H]([C@@H](C)O)NC(=O)[C@H](Cc2c[nH]c3ccccc23)NC(=O)[C@H]2CCCN2C(=O)CNC(=O)[C@H](Cc2c[nH]cn2)NC(=O)[C@@H]2CSSC[C@H](NC1=O)C(=O)N[C@@H](Cc1ccc(O)cc1)C(=O)N[C@@H](CCC(=O)O)C(=O)N[C@@H](CCN)C(=O)N1CCC[C@@H]1C(=O)N1CCC[C@H]1C(=O)N[C@@H](Cc1ccc(O)cc1)C(=O)N[C@@H](Cc1c[nH]cn1)C(=O)N[C@@H](CCCCN)C(=O)N2 [compound 56, cyclo(-Tyr-His-Lys-Cys-His-Gly-^DPro-Trp-Thr-Ile-Cys-Tyr-Glu-Dab-^DPro-Pro-)] (cyclo(YHKCHG[dP]WTICYE[Dab][dP]P); disulfide 4-11)"
4,77 ± 22 nM,"CC[C@H](C)[C@@H]1NC(=O)[C@H]([C@@H](C)O)NC(=O)[C@H](Cc2c[nH]c3ccccc23)NC(=O)[C@@H](C)NC(=O)CNC(=O)[C@H](Cc2c[nH]cn2)NC(=O)[C@@H]2CSSC[C@H](NC1=O)C(=O)N[C@@H](Cc1ccc(O)cc1)C(=O)N[C@@H](CCC(=O)O)C(=O)N[C@@H](CCCCN)C(=O)N1CCC[C@@H]1C(=O)N[C@@H](CCC(=O)O)C(=O)N[C@@H](Cc1ccc(O)cc1)C(=O)N[C@@H](Cc1c[nH]cn1)C(=O)N[C@@H](CCCCN)C(=O)N2 [Ex. 4, cyclo(-Tyr-His-Lys-Cys-His-Gly-^DAla-Trp-Thr-Ile-Cys-Tyr-Glu-Lys-^DPro-Glu-)] (cyclo(YHKCHG[dA]WTICYEK[dP]E); disulfide 4-11)"
5,124 ± 10 nM,"CC[C@H](C)[C@@H]1NC(=O)[C@H]([C@@H](C)O)NC(=O)[C@H](Cc2c[nH]c3ccccc23)NC(=O)[C@H]2CCCN2C(=O)CNC(=O)[C@H](Cc2c[nH]cn2)NC(=O)[C@@H]2CSSC[C@H](NC1=O)C(=O)N[C@@H](Cc1ccc(O)cc1)C(=O)N[C@@H](CCC(=O)O)C(=O)N[C@@H](CCCCN)C(=O)N[C@H](C)C(=O)N[C@@H](CCC(=O)O)C(=O)N[C@@H](Cc1ccc(O)cc1)C(=O)N[C@@H](Cc1c[nH]cn1)C(=O)N[C@@H](CCCCN)C(=O)N2 [compound 6, cyclo(-Tyr-His-Lys-Cys-His-Gly-^DPro-Trp-Thr-Ile-Cys-Tyr-Glu-Lys-^DAla-Glu-)] (cyclo(YHKCHG[dP]WTICYEK[dA]E); disulfide 4-11)"
6,82 ± 51 nM,"CC[C@H](C)[C@@H]1NC(=O)[C@H]([C@@H](C)O)NC(=O)[C@H](Cc2c[nH]c3ccccc23)NC(=O)[C@H]2CCCN2C(=O)CNC(=O)[C@H](Cc2c[nH]cn2)NC(=O)[C@@H]2CSSC[C@H](NC1=O)C(=O)N[C@@H](Cc1ccc(O)cc1)C(=O)N[C@@H](CCC(=O)O)C(=O)N[C@@H](CCCCN)C(=O)N1CCC[C@@H]1C(=O)N1C[C@H](N)C[C@H]1C(=O)N[C@@H](Cc1ccc(O)cc1)C(=O)N[C@@H](Cc1c[nH]cn1)C(=O)N[C@@H](CCCCN)C(=O)N2 [compound 83, cyclo(-Tyr-His-Lys-Cys-His-Gly-^DPro-Trp-Thr-IIe-Cys-Tyr-Glu-Lys-^DPro-Pro((4R)NH2)-)] (cyclo(YHKCHG[dP]WTICYEK[dP][Pro(4R-NH2)]); disulfide 4-11)"
7,177 ± 28 nM,"CC[C@H](C)[C@@H]1NC(=O)[C@H]([C@@H](C)O)NC(=O)[C@H](Cc2c[nH]c3ccccc23)NC(=O)[C@H]2CCCN2C(=O)CNC(=O)[C@H](Cc2c[nH]cn2)NC(=O)[C@@H]2CSSC[C@H](NC1=O)C(=O)N[C@@H](Cc1ccc(O)cc1)C(=O)N[C@@H](CCC(=O)O)C(=O)N[C@@H](CCCCN)C(=O)N1CCC[C@@H]1C(=O)N1CCC[C@H]1C(=O)N[C@@H](CC(=O)O)C(=O)N[C@@H](Cc1c[nH]cn1)C(=O)N[C@@H](CCCCN)C(=O)N2 [compound 66, cyclo(-Asp-His-Lys-Cys-His-Gly-^DPro-Trp-Thr-Ile-Cys-Tyr-Glu-Lys-^DPro-Pro-)] (cyclo(DHKCHG[dP]WTICYEK[dP]P); disulfide 4-11)"
8,685 ± 68 nM,"CC[C@H](C)[C@@H]1NC(=O)[C@H]([C@@H](C)O)NC(=O)[C@H](Cc2c[nH]c3ccccc23)NC(=O)[C@H]2CCCN2C(=O)CNC(=O)[C@H](Cc2c[nH]c3ccccc23)NC(=O)[C@@H]2CSSC[C@H](NC1=O)C(=O)N[C@@H]([C@@H](C)O)C(=O)N[C@@H](CCC(N)=O)C(=O)N[C@@H](CCCCN)C(=O)N1CCC[C@@H]1C(=O)N1CCC[C@H]1C(=O)N[C@@H](Cc1ccc(O)cc1)C(=O)N[C@@H](Cc1c[nH]cn1)C(=O)N[C@@H](C)C(=O)N2 [compound 34, cyclo(-Tyr-His-Ala-Cys-Trp-Gly-^DPro-Trp-Thr-Ile-Cys-Thr-Gln-Lys-^DPro-Pro-)] (cyclo(YHACWG[dP]WTICTQK[dP]P); disulfide 4-11)"
9,177 ± 121 nM,"CC[C@H](C)[C@@H]1NC(=O)[C@H]([C@@H](C)O)NC(=O)[C@H](Cc2c[nH]c3ccccc23)NC(=O)[C@H]2CCCN2C(=O)CNC(=O)[C@H](Cc2c[nH]cn2)NC(=O)[C@@H]2CSSC[C@H](NC1=O)C(=O)N[C@@H](Cc1ccc(O)cc1)C(=O)N[C@@H](CCC(N)=O)C(=O)N[C@@H](CCCCN)C(=O)N1CCC[C@@H]1C(=O)N1CCC[C@H]1C(=O)N[C@@H](Cc1ccc(O)cc1)C(=O)N[C@@H](Cc1c[nH]cn1)C(=O)N[C@@H](Cc1c[nH]c3ccccc13)C(=O)N2 [Ex. 11, cyclo(-Tyr-His-Trp-Cys-His-Gly-^DPro-Trp-Thr-Ile-Cys-Tyr-Gln-Lys-^DPro-Pro-)] (cyclo(YHWCHG[dP]WTICYQK[dP]P); disulfide 4-11)"
10,126 ± 78 nM,"CC[C@H](C)[C@@H]1NC(=O)[C@H]([C@@H](C)O)NC(=O)[C@H](Cc2c[nH]c3ccccc23)NC(=O)[C@H]2CCCN2C(=O)CNC(=O)[C@H](Cc2c[nH]c3ccccc23)NC(=O)[C@@H]2CSSC[C@H](NC1=O)C(=O)N[C@@H](Cc1ccc(O)cc1)C(=O)N[C@@H](CCC(=O)O)C(=O)N[C@@H](CCCCN)C(=O)N[C@H](C)C(=O)N1CCC[C@H]1C(=O)N[C@@H](Cc1ccc(O)cc1)C(=O)N[C@@H](Cc1c[nH]cn1)C(=O)N[C@@H](CCCCN)C(=O)N2 [compound 42, cyclo(-Tyr-His-Lys-Cys-Trp-Gly-^DPro-Trp-Thr-Ile-Cys-Tyr-Glu-Lys-^DAla-Pro-)] (cyclo(YHKCWG[dP]WTICYEK[dA]P); disulfide 4-11)"
11,96 ± 30 nM,"CC[C@H](C)[C@@H]1NC(=O)[C@H]([C@@H](C)O)NC(=O)[C@H](Cc2c[nH]c3ccccc23)NC(=O)[C@H]2CCCN2C(=O)CNC(=O)[C@H](Cc2c[nH]c3ccccc23)NC(=O)[C@@H]2CSSC[C@H](NC1=O)C(=O)N[C@@H](Cc1ccc(O)cc1)C(=O)N[C@@H](CCC(N)=O)C(=O)N[C@@H](CCCCN)C(=O)N1CCC[C@@H]1C(=O)N1CCC[C@H]1C(=O)N[C@@H](Cc1ccc(O)cc1)C(=O)N[C@@H](Cc1c[nH]cn1)C(=O)N[C@@H](C)C(=O)N2 [Ex. 40, cyclo(-Tyr-His-Ala-Cys-Trp-Gly-^DPro-Trp-Thr-Ile-Cys-Tyr-Gln-Lys-^DPro-Pro-)] (cyclo(YHACWG[dP]WTICYQK[dP]P); disulfide 4-11)"
12,124 ± 67 nM,"CC[C@H](C)[C@@H]1NC(=O)[C@H]([C@@H](C)O)NC(=O)[C@H](Cc2c[nH]c3ccccc23)NC(=O)[C@H]2CCCN2C(=O)CNC(=O)[C@H](Cc2c[nH]cn2)NC(=O)[C@@H]2CSSC[C@H](NC1=O)C(=O)N[C@@H](Cc1ccc(O)cc1)C(=O)N[C@@H](CCC(=O)O)C(=O)N[C@@H](CCCCN)C(=O)N[C@H](CCCCN)C(=O)N[C@@H](CCC(=O)O)C(=O)N[C@@H](Cc1ccc(O)cc1)C(=O)N[C@@H](Cc1c[nH]cn1)C(=O)N[C@@H](CCCCN)C(=O)N2 [compound 5, cyclo(-Tyr-His-Lys-Cys-His-Gly-^DPro-Trp-Thr-Ile-Cys-Tyr-Glu-Lys-^DLys-Glu-)] (cyclo(YHKCHG[dP]WTICYEK[dK]E); disulfide 4-11)"

# From patent publication US9957297B2, “Template-fixed peptidomimetics as inhibitors of FPR1” (POLYPHOR AG, priority 2011, dated 2018)
